In paper PMC12682947, “Identification of New KCNT1‐Epilepsy Drugs by In Silico, Cell, and Drosophila Modeling” (Annals of Neurology, 2025):
Counter-ions that a name gives are not always drawn.

Molecular target: T1, WT and mutant human KCNT1 channels (Homo sapiens, UniProt Q5JUK3)
T1 sequence (Q5JUK3 1-1230): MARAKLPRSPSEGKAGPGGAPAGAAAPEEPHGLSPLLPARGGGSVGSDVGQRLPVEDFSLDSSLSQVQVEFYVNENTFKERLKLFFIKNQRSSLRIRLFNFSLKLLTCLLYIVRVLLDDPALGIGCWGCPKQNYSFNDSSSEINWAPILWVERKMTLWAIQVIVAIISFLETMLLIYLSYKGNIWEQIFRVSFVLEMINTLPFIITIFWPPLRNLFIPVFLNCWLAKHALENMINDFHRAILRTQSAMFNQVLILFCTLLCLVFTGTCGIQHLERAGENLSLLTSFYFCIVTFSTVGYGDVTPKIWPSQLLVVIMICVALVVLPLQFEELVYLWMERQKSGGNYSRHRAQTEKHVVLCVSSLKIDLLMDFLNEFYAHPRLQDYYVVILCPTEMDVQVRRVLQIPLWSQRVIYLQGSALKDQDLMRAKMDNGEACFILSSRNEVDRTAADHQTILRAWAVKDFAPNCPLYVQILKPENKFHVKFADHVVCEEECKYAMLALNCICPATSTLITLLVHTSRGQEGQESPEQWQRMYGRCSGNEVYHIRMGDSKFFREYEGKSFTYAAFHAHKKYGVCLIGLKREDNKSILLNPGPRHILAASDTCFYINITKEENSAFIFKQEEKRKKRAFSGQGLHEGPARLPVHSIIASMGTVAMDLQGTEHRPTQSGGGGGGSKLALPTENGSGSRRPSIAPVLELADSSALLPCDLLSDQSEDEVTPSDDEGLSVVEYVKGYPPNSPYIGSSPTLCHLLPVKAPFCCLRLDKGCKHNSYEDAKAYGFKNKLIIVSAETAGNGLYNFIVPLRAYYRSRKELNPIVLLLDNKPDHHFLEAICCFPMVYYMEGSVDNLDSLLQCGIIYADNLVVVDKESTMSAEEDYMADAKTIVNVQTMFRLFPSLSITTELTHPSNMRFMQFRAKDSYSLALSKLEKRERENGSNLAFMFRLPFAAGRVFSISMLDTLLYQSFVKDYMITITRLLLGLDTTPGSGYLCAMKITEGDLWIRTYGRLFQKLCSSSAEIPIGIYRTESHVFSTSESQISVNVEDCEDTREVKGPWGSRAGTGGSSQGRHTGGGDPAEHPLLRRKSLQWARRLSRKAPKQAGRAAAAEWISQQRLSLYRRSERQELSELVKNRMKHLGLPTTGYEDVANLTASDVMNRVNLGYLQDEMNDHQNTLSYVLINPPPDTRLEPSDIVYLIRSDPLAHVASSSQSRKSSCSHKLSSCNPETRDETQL
Experiment: Inside-out patch clamp, statements pooled over WT and mutant channels
Format: cell-based
Settings: inside-out patches; for inhibition at 0.25 µM: 250 nM
Experimental: The CHO cells were cultured in Dulbecco's modified Eagle's Medium (ThermoFisher, UK) supplemented with 10% (v/v) fetal bovine serum, 50 U/ml penicillin and 0.05 mg/ml streptomycin, and incubated at 37°C in 5% CO2 atmosphere. For whole cell recording of WT/Y796H KCNT1, CHO cells were transiently co‐transfected with concatemeric WT/Y796H and EYFP, as described previously.[29] For electrophysiological experiments, cells were plated onto borosilicate glass cover slips and used 2 to 4 days later. Human embryonic kidney 293T cells (HEK293T) were cultured in the same manner, but with medium supplemented with 2 mM L‐glutamine, and 1% (v/v) nonessential amino acids. For excised inside‐out recording of homomeric WT or mutant YFP‐tagged KCNT1, HEK293T cells plated on glass cover slips were transfected using Attractene Transfection Reagent (Qiagen, Germany) according to the manufacturer's instructions and used 2 to 3 days later.
Inside‐out patch clamp recordings were made at room temperature (23°C) from transiently transfected HEK293T cells, as described previously.[11] The pipette solution contained, in mM, 140 NaCl, 4 KCl, 2 CaCl2, 2 MgCl2, and 10 HEPES adjusted to pH 7.4 with NaOH. After achieving the inside‐out configuration, the intracellular face of the membrane was constantly perfused with a solution containing, in mM, 35 NaCl, 110 KCl, 0.2 EGTA, and 10 HEPES adjusted to pH 7.3 with KOH. Drug stock solutions of 5 to 20 mM in DMSO were first diluted in ethanol (1:10) and then in electrophysiological solution. KCNT1 currents were recorded using 2 voltage protocols, depending on the number of active channels in the patch before drug application. Macroscopic currents (number of active channels > 15) were recorded in response to 100 ms voltage ramps between −120 and 120 mV applied every 2 seconds from a holding potential of −78 mV. The average current amplitudes between 0 and 40 mV were used for the analyses and constructing the concentration‐response curves. With a lower number of active channels in the patch (3–15), current traces were recorded in response to 15‐second voltage steps to −20, 0, and 20 mV from a holding potential of −78 mV. Currents recorded at each voltage and each drug concentration were averaged over the duration of the trace and normalized to the average amplitudes of the corresponding current traces in drug‐free solution. The normalized data for all 3 voltage steps were then averaged for each drug concentration and used to build the concentration‐response curves (see Supplementary Fig S3). To determine the IC50, data were fitted with the Hill equation, as described previously.[11] Single channel data were analyzed using Ana software developed by Dr Michael Pusch (Istituto di Biofisica, Genova, Italy; http://users.ge.ibf.cnr.it/pusch/programs-mik.htm). […]

| Compound | inhibition at 0.25 µM [%] | inhibition at 0.3 µM (300 nM, read-out: inhibition of single KCNT1 channels) [%] | IC50 (read-out: direct IC50 on single KCNT1 channels) [nM] |
| --- | --- | --- | --- |
| O=C(OCCN1CCN(c2cccc(C(F)(F)F)c2)CC1)c1ccccc1Nc1ccnc2cc(C(F)(F)F)ccc12 [antrafenine] | 80 to 90 | ~90 | ~10 |
| Cc1c(O)cccc1C(=O)N[C@@H](CSc1ccccc1)[C@H](O)CN1C[C@H]2CCCC[C@H]2C[C@H]1C(=O)NC(C)(C)C [nelfinavir mesylate] | 80 to 90 | – | – |
